Experimental data published in patent US20130209403A1, “USE OF INHIBITORS OF PHOSPHOLIPASE A2 FOR THE TREATMENT OR PREVENTION OF FLAVIVIRUS INFECTION” (Ruprecht-Karls-Universitaet, priority 2010, published 2013).

What was measured:
HCV [1] = details: 20 μm pyrrolidine-2 vs untreated cells; FIG. 4B
Method: (§1) The assay was performed according to standard protocols and materials were purchased from commercial suppliers and used according to respective manuals supplied therewith.

[2] = 20 μm pyrrolidine-2 compared to DMSO; FIG. 5
Method: as §1

ApoB = details: Mock- and Jc1-transfected cells; 20 μm pyrrolidine-2; FIG. 9
Description: (§2) A standard ELISA protocol was employed for assessing the relevance of cPLA2α activity for release of lipoproteins carrying ApoB and ApoE.

DENV [3] = details: Huh-7.5 cells, DV-R2A, 0, 5, 10 and 20 μM, added 42 h after transfection
Method: This example employs a standard bioassay for determining the effect of the cPLA2α inhibitor pyrrolidine-2 on the production of Huh-7.5 cells transfected with dengue virus RNA DV-R2A. The assay was performed according to standard protocols and materials were purchased from commercial suppliers and used according to respective manuals supplied therewith. Pyrrolidine-2 was added to the cells 42 h after transfection at the indicated final concentrations of 0, 5, 10 and 20 μM.

HCV [4] = details: Jc1-transfected cells, 0, 5, 10 and 20 μM, added 42 h after transfection
Method: This example employs a standard bioassay for determining the effect of the cPLA2α inhibitor pyrrolidine-2 on the production of Jc1-transfected cells. The general assay set up is shown in
FIG. 2. The assay was performed according to standard protocols and materials were purchased from commercial suppliers and used according to respective manuals supplied therewith. Pyrrolidine-2 was added to the cells 42 h after transfection at […] the indicated final concentrations of 0, 5, 10 and 20 μM.

HCV core protein = details: lipid droplet fractions; 20 μm pyrrolidine-2 vs untreated cells; FIG. 8A-C
Description: Standard ELISA and Western Blot protocols were used for the analysis of lipid droplet fractions of untreated cells and cells treated with 20 μm pyrrolidine-2.

DENV [5] = test: Infectivity of DENV, limiting dilution titration assay
Description: A standard limiting dilution titration assay was employed for assessing the relevance of cPLA2α activity for release of infectious DENV particles.

ApoE = details: Mock- and Jc1-transfected cells; 20 μm pyrrolidine-2; FIG. 9
Description: as §2

HCV [6] = details: 20 μm pyrrolidine-2 vs untreated cells, FIG. 7

CC(C)CN(Cc1ccccc1-c1ccccc1)[C@@H]1C[C@@H](CNC(=O)C=Cc2ccc(C=C3SC(=O)NC3=O)cc2)N(C(=O)c2ccccc2C(=O)c2ccc(F)cc2F)C1.Cl [pyrrolidine-2, N-{(2S,4R)-4-(Biphenyl-2-ylmethyl-isobutyl-amino)-1-[2-(2,4-difluorobenzoyl)-benzoyl]-pyrrolidin-2-ylmethyl}-3-[4-(2,4-dioxothiazolidin-5-ylidenemethyl)-phenyl]acrylamide, HCl]
viral entry (HCV [1]): does not influence viral entry | cytotoxicity [2]: did not show any cytotoxicity | reduction of the quantity of secreted ApoB (ApoB): more than 50% | RNA replication of DENV (DENV [3]; FIG. 11A): only slightly affected | release of infectious DENV particles (DENV [3]; FIG. 11B): potently inhibited in a dose-dependent manner | RNA replication of HCV (HCV [4]; FIG. 3A): not affected | release of infectious HCV particles (HCV [4]; FIG. 3B): potently inhibited in a dose-dependent manner | quantity of lipid droplet associated core protein (HCV core protein): reduced | inactivation of released infectious DENV particles (DENV [5]; particles produced in the absence of the inhibitor, then treated with 20 μm pyrrolidine-2, FIG. 12B): does not inactivate released infectious particles | reduction of the quantity of released infectious DENV particles (DENV [5]; transfected Huh-7.5 cells treated with 20 μm pyrrolidine-2, FIG. 12A): more than 3 orders of magnitude | reduction of the quantity of secreted ApoE (ApoE): more than 50% | lowering of intracellular virus titer (HCV [6]): about 10 fold | reduction of extracellular virus titers (HCV [6]): 100 fold
